In patent US20230092648A1, “COMBINATION CONTAINING A DUOCARMYCIN DERIVATIVE-COMPRISING ANTIBODY-DRUG CONJUGATE AND THIOSULFATE” (BYONDIS B.V., priority 2020, published 2023):

Conditions: formulations up to a concentration of 0.3 M STS; ocular route

O=S(O)(O)=S [STS, sodium thiosulfate]
adverse findings (local tolerance and toxicity): did not show adverse findings
